According to US20240245658A1, “TAAR1 AND SEROTONIN MODULATORS, AND PHARMACEUTICAL COMPOSITIONS, AND METHODS OF USE THEREOF” (Sunovion Pharmaceuticals Inc., priority 2021, published 2024):
Where two headings read alike, the source gives them in different places.

Legend:
Assay type in all cases: cell-based
human TAAR1 receptors = target: T1, human TAAR1 receptors (Homo sapiens, UniProt Q96RJ0); experiment: TAAR1 Agonism Assay: cAMP HTRF assay for Gs coupled receptor TAAR1 (Euroscreen FAST-0987C); settings: CHO-K1 cells expressing human TAAR1, cAMP HTRF
T1 construct: host or cells: CHO-K1
T1 sequence (Q96RJ0 1-339): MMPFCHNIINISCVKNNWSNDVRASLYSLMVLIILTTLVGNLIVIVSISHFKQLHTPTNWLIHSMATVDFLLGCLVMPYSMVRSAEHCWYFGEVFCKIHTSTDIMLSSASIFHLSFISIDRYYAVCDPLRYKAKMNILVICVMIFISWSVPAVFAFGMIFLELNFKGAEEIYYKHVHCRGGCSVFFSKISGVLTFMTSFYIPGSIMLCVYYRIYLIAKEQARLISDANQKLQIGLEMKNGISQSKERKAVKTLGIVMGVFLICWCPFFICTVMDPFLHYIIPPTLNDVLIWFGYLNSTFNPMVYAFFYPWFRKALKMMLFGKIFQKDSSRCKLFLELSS
Protocol: Dose response curves were performed in parallel with the reference compound, tyramine.
For the TAAR1 agonist test (performed in a 384 well plate): 5 μl of cells (about 3,000 cells) were mixed with 5 μl of the test compound diluted in assay buffer and then incubated for about 30 minutes at about room temperature. After addition of the lysis buffer containing cAMP-d2 and anti-cAMP cryptate detection reagents, plates were incubated for about a 1-hour incubation at about room temperature, and fluorescence ratios were measured according to the manufacturer specifications, with the HTRF (Homogeneous Time Resolved Fluorescence) kit (cAMP Gs dynamic kit, Cisbio Bioassays, 62AM4PEJ).
(§1) Compounds were tested at the following nanomolar concentrations, in duplicate: 0.3 nM, 1 nM, 3 nM, 10 nM, 30 nM, 100 nM, 300 nM, 1,000 nM, 3,000 nM, and 10,000 nM.

human 5-HT2A receptor = target: T2, human 5-HT2A receptor (Homo sapiens, UniProt P28223); experiment: 5HT2A Antagonism Assay (Euroscreen FAST-05051), IP-One HTRF
T2 construct: host or cells: CHO-K1
Protocol: 5HT2A Antagonism Assay Protocol (Euroscreen FAST-05051)
CHO-K1 cells expressing the human 5-HT2A receptor grown to mid-log phase in culture media without antibiotics, were detached with PBS-EDTA, centrifuged, and resuspended in the IP-One Gq kit (Cisbio Bioassays, 62IPAPEC) stimulation buffer.
For antagonist testing in a 384 well plate: 5 μl of cells (20,000 cells) were mixed with 5 μl of a mix of test compound and reference agonist (for a final assay concentration corresponding to its EC80) diluted in stimulation buffer. The plate was incubated for 60 minutes at 37° C. in a humidified atmosphere of 95% air with 5% CO2, then 5 μL of IP1-d2 and anti-IP1 cryptate detection reagents were added to each well, the plates were incubated for about 1 hour at about room temperature. Fluorescence ratios are measured according to the manufacturer's specification (IP-One Gq kit (Cisbio Bioassays, 62IPAPEC).
Dose response curves were performed in parallel with reference compounds (e.g., α-methyl-5-HT. Compounds were tested at the following nanomolar concentrations, in duplicate: 0.3 nM, 1 nM, 3 nM, 10 nM, 30 nM, 100 nM, 300 nM, 1,000 nM, 3,000 nM, and 10,000 nM

human 5-HT7 receptor = target: T3, human 5-HT7 receptor (Homo sapiens, UniProt P34969); experiment: 5HT7 Antagonism Assay (Euroscreen FAST-0499C), cAMP HTRF; settings: CHO-K1 cells expressing human 5-HT7, reference agonist at EC80, cAMP HTRF
T3 construct: host or cells: CHO-K1
Protocol: 5HT7 Antagonism Assay Protocol (Euroscreen FAST-0499C)
CHO-K1 cells expressing the human 5-HT7 receptor, grown prior to the test in media without antibiotic, were detached by gentle flushing with PBS-EDTA (5 mM EDTA), recovered by centrifugation and resuspended in assay buffer (Krebs-Ringer HEPES buffer: 5 mM KCl, 1.25 mM MgSO4, 124 mM NaCl, 25 mM HEPES, 13.3 mM Glucose, 1.25 mM KH2PO4, 1.45 mM CaCl2), 0.5 g/l BSA, supplemented with 1 mM IBMX).
Dose response curves were performed in parallel with reference compounds (e.g., 5-carboxamidotryptamine (5-CT)).
For antagonist testing in a 384 well plate: 5 μl of cells (3000 cells) were mixed with 5 μl of a mix of test compound and reference agonist (for a final assay concentration corresponding to its EC80) diluted in assay buffer. The plates were then incubated for about 30 minutes at about room temperature. After addition of the lysis buffer containing cAMP-d2 and anti-cAMP cryptate detection reagents, plates were incubated for about 1 hour at about room temperature, and fluorescence ratios were measured according to the manufacturer's specifications (HTRF kit: cAMP Gs dynamic kit, Cisbio Bioassays, 62AM4PEJ).
as §1

[1] = 5-HT2A (IC50), CHO-K1 cells expressing human 5-HT2A, reference agonist at EC80, IP-One

T2 sequence (P28223 whole entry): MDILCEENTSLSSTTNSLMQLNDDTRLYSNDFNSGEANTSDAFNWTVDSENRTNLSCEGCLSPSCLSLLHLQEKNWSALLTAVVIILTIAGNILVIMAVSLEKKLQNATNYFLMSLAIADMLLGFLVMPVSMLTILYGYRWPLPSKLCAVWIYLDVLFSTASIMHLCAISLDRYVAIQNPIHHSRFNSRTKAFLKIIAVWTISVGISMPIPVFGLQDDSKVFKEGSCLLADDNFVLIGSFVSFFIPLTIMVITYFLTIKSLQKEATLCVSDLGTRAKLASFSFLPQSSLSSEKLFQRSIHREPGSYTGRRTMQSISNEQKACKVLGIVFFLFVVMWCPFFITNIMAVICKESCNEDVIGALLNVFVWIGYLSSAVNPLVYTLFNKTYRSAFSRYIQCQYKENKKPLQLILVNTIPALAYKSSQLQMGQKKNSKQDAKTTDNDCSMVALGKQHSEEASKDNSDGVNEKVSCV
T3 sequence (P34969 whole entry): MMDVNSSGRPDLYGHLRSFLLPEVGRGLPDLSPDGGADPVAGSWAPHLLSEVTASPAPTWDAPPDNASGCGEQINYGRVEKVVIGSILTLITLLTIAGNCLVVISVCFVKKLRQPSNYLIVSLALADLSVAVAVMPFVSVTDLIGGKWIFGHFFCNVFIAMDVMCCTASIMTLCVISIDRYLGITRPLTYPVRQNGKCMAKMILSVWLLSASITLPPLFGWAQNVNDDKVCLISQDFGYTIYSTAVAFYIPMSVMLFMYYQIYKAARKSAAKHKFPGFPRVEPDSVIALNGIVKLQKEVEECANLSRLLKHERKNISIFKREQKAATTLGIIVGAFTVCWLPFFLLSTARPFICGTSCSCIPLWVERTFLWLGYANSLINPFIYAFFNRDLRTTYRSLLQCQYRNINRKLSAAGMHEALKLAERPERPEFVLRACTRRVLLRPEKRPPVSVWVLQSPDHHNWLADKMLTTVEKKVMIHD

| SMILES | EC50 (human TAAR1 receptors) [µM] | also measured |
| --- | --- | --- |
| NCC1Cc2ccccc2Oc2cc(F)ccc21 (single isomer, unassigned) [Compound 1, (R*)-(7-fluoro-10,11-dihydrodibenzo[b,f]oxepin-10-yl)methanamine] | 1 to 10 | IC50 (human 5-HT2A receptor; [1]): < 1000 nM; IC50 (human 5-HT7 receptor): ≥ 10 µM |
| NCC1Cc2ccccc2Oc2cc(F)ccc21 (single isomer, unassigned) [Compound 2, (S*)-(7-fluoro-10,11-dihydrodibenzo[b,f]oxepin-10-yl)methanamine] | < 1 | IC50 (human 5-HT2A receptor; read-out: 5-HT2A (IC50), CHO-K1 cells expressing human 5-HT2A, reference agonist at EC80, IP-One): < 1000 nM; IC50 (human 5-HT7 receptor): ≥ 10 µM |
| CNCC1Cc2ccccc2Oc2cc(F)ccc21 (single isomer, unassigned) [Compound 3, (R*)-1-(7-fluoro-10,11-dihydrodibenzo[b,f]oxepin-10-yl)-N-methylmethanamine] | > 10 | IC50 (human 5-HT2A receptor; [1]): < 1000 nM; IC50 (human 5-HT7 receptor): 1 to 10 µM |
| CNCC1Cc2ncccc2Oc2cc(F)ccc21 (single isomer, unassigned) [Compound 33, (R*)-1-(7-fluoro-10,11-dihydrobenzo[6,7]oxepino[3,2-b]pyridin-10-yl)-N-methylmethanamine] | > 10 | – |
| CNCC1Cc2ncccc2Oc2cc(F)ccc21 (single isomer, unassigned) [Compound 34, (S*)-1-(7-fluoro-10,11-dihydrobenzo[6,7]oxepino[3,2-b]pyridin-10-yl)-N-methylmethanamine] | < 1 | – |
| NCC1Cc2ncccc2Oc2cc(F)ccc21 (single isomer, unassigned) [Compound 35, (R*)-(7-fluoro-10,11-dihydrobenzo[6,7]oxepino[3,2-b]pyridin-10-yl)methanamine] | 1 to 10 | – |
| CNCC1Cc2ncc(F)cc2Oc2ccccc21 (single isomer, unassigned) [Compound 37, (R*)-1-(3-fluoro-10,11-dihydrobenzo[6,7]oxepino[3,2-b]pyridin-10-yl)-N-methylmethanamine] | > 10 | – |
| NCC1Cc2ccc(F)cc2Oc2ccccc21 (single isomer, unassigned) [Compound 88, (R*)-(3-fluoro-10,11-dihydrodibenzo[b,f]oxepin-10-yl)methanamine] | 1 to 10 | – |
| NCC1Cc2ccccc2Oc2ccc(F)cc21 (single isomer, unassigned) [Compound 93, (S*)-(8-fluoro-10,11-dihydrodibenzo[b,f]oxepin-10-yl)methanamine] | 1 to 10 | – |
| NCC1Cc2cc(F)ccc2Oc2ccccc21 (single isomer, unassigned) [Compound 97, (S*)-(2-fluoro-10,11-dihydrodibenzo[b,f]oxepin-10-yl)methanamine] | > 10 | – |
| CNCC1Cc2cc(F)ccc2Oc2ccccc21 (single isomer, unassigned) [Compound 99, (S*)-(2-fluoro-10,11-dihydrodibenzo[b,f]oxepin-10-yl)-N-methylmethanamine] | > 10 | – |
| CNCC1Cc2ccccc2Oc2c(F)cccc21 (single isomer, unassigned) [Compound 103, (S*)-(6-fluoro-10,11-dihydrodibenzo[b,f]oxepin-10-yl)-N-methylmethanamine] | 1 to 10 | – |
| CCNCC1Cc2ccccc2Oc2cccnc21 (single isomer, unassigned) [Compound 108, (S*)-1-(10,11-dihydrobenzo[6,7]oxepino[3,2-b]pyridin-11-yl)-N-ethylmethanamine] | < 1 | – |
| CN(C)CC1Cc2ccccc2Oc2cccnc21 (single isomer, unassigned) [Compound 110, (S*)-1-(10,11-dihydrobenzo[6,7]oxepino[3,2-b]pyridin-11-yl)-N,N-dimethylmethanamine] | > 10 | – |
| CNCC1Cc2c(F)cccc2Oc2cccnc21 (single isomer, unassigned) [Compound 139, (R*)-1-(9-fluoro-10,11-dihydrobenzo[6,7]oxepino[3,2-b]pyridin-11-yl)-N-methylmethanamine] | 1 to 10 | – |
| CNCC1Cc2c(C)cccc2Oc2cccnc21 (single isomer, unassigned) [Compound 142, (S*)-(9-methyl-10,11-dihydrobenzo[6,7]oxepino[3,2-b]pyridin-11-yl)-N-methylmethanamine] | 1 to 10 | – |
| CNCC1Cc2c(Cl)cccc2Oc2cccnc21 (single isomer, unassigned) [Compound 146, (S*)-(9-chloro-10,11-dihydrobenzo[6,7]oxepino[3,2-b]pyridin-11-yl)-N-methylmethanamine] | > 10 | – |
| NCC1Cc2cc(Br)ccc2Oc2cccnc21 (single isomer, unassigned) [Compound 148, (R*)-(8-bromo-10,11-dihydrobenzo[6,7]oxepino[3,2-b]pyridin-11-yl)methanamine] | < 1 | – |
| NCC1Cc2ncccc2Oc2cccc(F)c21 (single isomer, unassigned) [Compound 155, (R*)-(9-fluoro-10,11-dihydrobenzo[6,7]oxepino[3,2-b]pyridin-10-yl)methanamine] | 1 to 10 | – |
| CNCC1Cc2ncccc2Oc2cccc(F)c21 (single isomer, unassigned) [Compound 157, (R*)-(9-fluoro-10,11-dihydrobenzo[6,7]oxepino[3,2-b]pyridin-10-yl)-N-methylmethanamine] | > 10 | – |
| NCC1Cc2ncccc2Oc2ccc(Cl)cc21 (single isomer, unassigned) [Compound 168, (S*)-(8-chloro-10,11-dihydrobenzo[6,7]oxepino[3,2-b]pyridin-10-yl)methanamine] | 1 to 10 | – |
| CNCC1Cc2ncccc2Oc2ccc(Cl)cc21 (single isomer, unassigned) [Compound 169, (R*)-1-(8-chloro-10,11-dihydrobenzo[6,7]oxepino[3,2-b]pyridin-10-yl)-N-methylmethanamine] | > 10 | – |
| NCC1Cc2ncccc2Oc2c(F)cccc21 (single isomer, unassigned) [Compound 175, (R*)-(6-fluoro-10,11-dihydrobenzo[6,7]oxepino[3,2-b]pyridin-10-yl)methanamine] | 1 to 10 | – |
| CNCC1Cc2ncccc2Oc2c(F)cccc21 (single isomer, unassigned) [Compound 177, (R*)-1-(6-fluoro-10,11-dihydrobenzo[6,7]oxepino[3,2-b]pyridin-10-yl)-N-methylmethanamine] | > 10 | – |
| CNCC1Cc2ncccc2Oc2c(F)cccc21 (single isomer, unassigned) [Compound 178, (S*)-1-(6-fluoro-10,11-dihydrobenzo[6,7]oxepino[3,2-b]pyridin-10-yl)-N-methylmethanamine] | < 1 | – |
| C[C@H]1c2ccccc2Oc2cccnc2[C@H]1CN (stereo in doubt) [Compound 113, ((10R*,11R*)-10-methyl-10,11-dihydrobenzo[6,7]oxepino[3,2-b]pyridin-11-yl)methanamine] | > 10 | – |
| CNC[C@@H]1c2ncccc2Oc2ccccc2[C@@H]1C (stereo in doubt) [Compound 117, ((10R*,11R*)-10-methyl-10,11-dihydrobenzo[6,7]oxepino[3,2-b]pyridin-11-yl)-N-methylmethanamine] | > 10 | – |
